Here are results for eight molecules from patent publication US11440923B2, “Substituted macrocyclic indole derivatives” (Bayer Aktiengesellschaft, priority 2017, dated 2022).

Where a name gives a salt, the structure may show the parent alone. Read-outs that look alike come from different tables or passages of the source.

One test has as its system MV-4-11 cells. In words: Antiproliferation assay MV-4-11 (Assay 7). As to conditions: Homo sapiens, MV4-11, 72 h, CellTiter-Glo, read-out: Antiproli MV-4-11 IC50 median. The class given is cell-based. The protocol:
(§1) Assessment of the Anti-Proliferative Effect of Compounds in Different Cell Lines
(§2) The impact of compounds on the proliferation of different cell lines was assessed using the CellTiter-Glo® Luminescent Cell Viability reagent from Promega (G7573).
(§3) In parallel, cells were plated in a reference (day 0) plate for time zero determination. Cells were incubated in a humidified incubator at 37° C. overnight.
(§4) Rim wells were excluded. The cells were incubated for 72 h hours in a humidified incubator at 37° C. The day 0 plate was measured by adding 30 μL/well of CTG solution (CellTiter-Glo® Luminescent Cell Viability reagent, Promega G7573) to time zero wells in the reference plate followed by a 10 minutes incubation and luminescence reading at 0.1 ms. using the PHERAstar FS microplate reader (BMG Labtech).
(§5) After 72 h incubation, the treated plates were measured in the same way as the day 0 plate mentioned above. The Bella DRC Master Sheet was used to calculate IC50s, with CI=day 0 values and C0=DMSO control values.

Test [1] addresses MCL1 protein / biotinylated BIM BH3 peptide in RKO cells (Homo sapiens (Human), UniProt Q07820). Kind of test: PIxEL: protein-protein interaction in permeabilized cells by ELISA (Assay 5). The class given is cell-based. As to conditions: PIxEL IC50 (median). The protocol:
PIxEL: Protein-Protein Interaction in Permeabilized Cells by ELISA
Most MCL1 protein molecules are localized at the mitochondria outer membrane and sequester pro-apoptotic proteins through binding of their BCL2 homology domain 3 (BH3 domain). MEB buffer (150 mM mannitol, 10 mM HEPES pH 7.5, 50 mM KCl, 20 μM EDTA, 20 μM EGTA, 5 mM potassium succinate, 0.1% protease-free BSA (SIGMA) with low dose digitonin (0.002%) permeabilizes plasma membrane while leaves live mitochondria, where MCL1 maintains its native localization and conformation. Unlike biophysical assays (e.g. TR-FRET) that use truncated recombinant MCL1 protein, this assay uses full length endogenous MCL1 protein at mitochondria outer membrane. It measures the interaction between MCL1 protein and biotinylated BIM BH3 peptide. Compounds can compete with BIM BH3 peptide to bind to MCL1 protein.
On day 1, RKO colon cancer cell line cells were plated at 0.8 million cells/ml, 100 μl/well in 96-well flat bottom TC plates (Corning). MCL1 antibody (Santa Cruz sc-12756) were diluted at 200 fold (final concentration 1 μg/ml) in carbonate buffer (Thermo Fisher Scientific, pH 9.6), and 50 μl of diluted antibody was added to each well of high bind ELISA plates ([…]). Each plate was tapped to make sure liquid covering entire bottom of wells and incubate at 37° C. overnight.
On the second day, MCL1 antibody was washed from ELISA plate. 250 μl Odyssey® Blocking Buffer (PBS) (Li-Cor) was added to each well, incubated at room temperature for at least 1 hour, then washed once with 250 μl 1×PBST. Plates with RKO cells were gently washed once with 100 μl/well PBS, once with 100 μl/well MEB buffer without digitonin, then 100 μl of MEB buffer with 0.002% digitonin was gently added to each well. Compounds were added with HP Tecan compound dispenser in 3-fold dilution series, highest dose 30 μM, 10-dose per compound in quadruplicates. Biotin-BIM peptide (synthesized by 21st Century) was added with HP Tecan compound dispenser at 0.2 μM immediately after the addition of compounds. Plates were rocked for 1 hour at room temperature. Then MEB buffer was aspirated and 50 μl of CHAPS buffer (50 mM Tris-Cl, pH 7.4, 150 mM NaCl, 1% CHAPS, 1 mM EDTA, 1 mM EGTA, cOmplete protease inhibitors (Roche), PhosSTOP (Roche)) was added to each well. Plates were rocked for 1 hour at 4° C., then 45 μl cell lysate from each well were transferred to ELISA plates coated with MCL1 antibody. Plates were incubated overnight in the cold room with rocking.
On the third day, ELISA plates were washed once with 250 μl 1×PBST. Streptavidin-poly-HRP (Thermo Fisher Scientific) was diluted to 20 ng/ml in Odyssey blocking buffer plus 0.05% Triton-100, and 100 μl was added to each well of the ELISA plate. Plates were incubated at room temperature for 1 hour with rocking, then washed with 100 μl 1×PBST for 3 times. Each SuperSignal ELISA Femto Maximum Sensitivity substrate was added to a 50-ml tube and mixed, then 100 μl of mixed substrate was added to each well. Plates were shaken for 1 minute then luminescence was measured by Envision plate reader […]. Signal of each well were normalized by no-compound control and no-cell control. IC50 was calculated using Graphic Pad PRISM software.

For another test, the target named is MCL-1 (Homo sapiens (Human), UniProt Q07820, K194A/K197A/R201A). Kind of test: Protein-compound interaction assay (SPR assay, Assay 9). In kind it is binding. The note with it: for Kd: KD (geometric mean), SPR, 25° C.; for koff: read-out: koff (geometric mean), SPR, 25° C.; for kon: read-out: kon (geometric mean), SPR, 25° C. The text has this:
Assay 9 Protein-Compound Interaction Assay (SPR Assay)
The ability of the compounds described in this invention to bind to MCL-1 may be determined using surface plasmon resonance (SPR). This allows for the quantification of binding in terms of the equilibrium dissociation constant (KD [M]), as well as association and dissociation rate constants (kon [1/Ms] and koff [1/s], respectively). The measurements may be performed using Biacore® T200 or Biacore® S200 instruments (GE Healthcare).
Briefly, carboxymethylated dextran biosensor chips (Series S Sensor Chip CMS, GE Healthcare) were activated with 1-ethyl-3-(3-dimethylaminopropyl)-carbodiimide hydrochloride (EDC) and N-hydroxysuccinimide (NHS) according to the supplier's instructions. MBP-MCL-1 was diluted in 1×PBS-P+ (GE Healthcare) and injected on the activated chip surface. Subsequently, a solution of 1 M ethanolamine-HCl (GE Healthcare) was injected to block unreacted groups, resulting in approximately 400-2500 response units (RU) of immobilized protein. A reference surface was generated by treatment with NHS-EDC and ethanolamine-HCl. […] Compounds were injected for 60 s followed by a dissociation time of up to 1000 s.
The double-referenced sensorgrams were fit to a simple reversible Langmuir 1:1 reaction mechanism as implemented in the Biacore® T200 and S200 evaluation software (T200 evaluation software version 2.0 and S200 evaluation software version 1.0, GE Healthcare).

The test system of another test is SNU-389 cells. Kind of test: Antiproliferation assay SNU-389 (Assay 7). The class given is cell-based. As to conditions: 72 h, read-out: Antiproli SNU-389 IC50. The method, boiled down: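 Cell proliferation was measured with CellTiter-Glo luminescence after 72 h compound exposure at 37 °C. A day 0 reference plate, read after overnight incubation, set the time-zero value. IC50s were calculated relative to day 0 (CI) and DMSO control (C0) values.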

A further test deals with DMS-114 cells. Kind of test: Antiproliferation assay DMS-114 (Assay 7). In kind it is cell-based. The note with it: Homo sapiens, read-out: Antiproli DM-S114 IC50 median. The protocol: as §1, §2, §3, §4, §5

Sequence of MCL1 protein / biotinylated BIM BH3 peptide in RKO cells (Q07820 whole entry): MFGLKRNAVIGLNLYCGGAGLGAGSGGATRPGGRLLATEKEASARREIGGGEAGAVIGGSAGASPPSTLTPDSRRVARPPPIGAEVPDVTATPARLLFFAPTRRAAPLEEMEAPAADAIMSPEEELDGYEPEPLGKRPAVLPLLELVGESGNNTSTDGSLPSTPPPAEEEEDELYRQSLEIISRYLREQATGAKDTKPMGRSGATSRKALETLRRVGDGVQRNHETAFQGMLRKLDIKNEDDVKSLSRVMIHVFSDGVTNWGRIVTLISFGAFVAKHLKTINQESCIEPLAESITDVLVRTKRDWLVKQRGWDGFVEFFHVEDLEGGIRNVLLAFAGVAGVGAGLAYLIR
Sequence of MCL-1 (Q07820 whole entry K194A/K197A/R201A, looked up): as the sequence (Q07820 whole entry) above, with K194A, K197A, R201A counted along it

For `Cc1c2c(nn1C)C(CCN1CCOCC1)OCCCCn1c(C(=O)O)c(CCCOc3cccc4ccccc34)c3ccc(Cl)c-2c31` (racemic) [Example 13, (rac)-4-chloro-2,3-dimethyl-15-[2-(morpholin-4-yl)ethyl]-7-{3-[(naphthalen-1-yl)oxy]propyl}-2,10,11,12,13,15-hexahydropyrazolo[4′,3′:9,10][1,6]oxazacycloundecino[8,7,6-hi]indole-8-carboxylic Acid], in the test on MV-4-11 cells, the IC50 amounted to 220 nM.

For `Cc1c2c(nn1C)C(CCN1CCOCC1)OCCCCn1c(C(=O)O)c(CCCOc3cccc4cc(F)ccc34)c3ccc(F)c-2c31` (racemic) [Example 19, (rac)-4-fluoro-7-{3-[(6-fluoronaphthalen-1-yl)oxy]propyl}-2,3-dimethyl-15-[2-(morpholin-4-yl)ethyl]-2,10,11,12,13,15-hexahydropyrazolo[4′,3′:9,10][1,6]oxazacycloundecino[8,7,6-hi]indole-8-carboxylic Acid], the half-maximal inhibitory concentration (IC50) in the test with MV-4-11 cells stood at 140 nM.

The molecule `Cc1c2c(nn1C)C(CCN1CCOCC1)OCCCCn1c(C(=O)O)c(CCCOc3cccc4cc(F)ccc34)c3ccc(Cl)c-2c31` (single isomer, unassigned; enantiomer 1) [Example 17, 4-chloro-7-{3-[(6-fluoronaphthalen-1-yl)oxy]propyl}-2,3-dimethyl-15-[2-(morpholin-4-yl)ethyl]-2,10,11,12,13,15-hexahydropyrazolo[4′,3′:9,10][1,6]oxazacycloundecino[8,7,6-hi]indole-8-carboxylic Acid—N-ethylethanamine (Enantiomer 1)] yielded an IC50 in test [1] of 35.7 nM. On MCL-1, binding was characterised by a dissociation constant (Kd) of 0.77 nM, the koff stood at 0.015 s⁻¹ and the kon was found to be 2e+07 M⁻¹ s⁻¹.

`CCC1OCCCCn2c(C(=O)O)c(CCCOc3cccc4ccccc34)c3ccc(Cl)c(c32)-c2c1nn(C)c2C` (single isomer, unassigned; enantiomer 1) [Example 29, (+)-4-chloro-15-ethyl-2,3-dimethyl-7-{3-[(naphthalen-1-yl)oxy]propyl}-2,10,11,12,13,15-hexahydropyrazolo[4′,3′:9,10][1,6]oxazacycloundecino[8,7,6-hi]indole-8-carboxylic Acid—N-ethylethanamine Salt (Enantiomer 1)] came in with an IC50 in test [1] of 1060 nM. On MCL-1, the affinity, expressed as Kd, was 8.3 nM; the koff was found to be 0.014 s⁻¹; the kon stood at 1.7e+06 M⁻¹ s⁻¹.

In test [1], `Cc1c2c(nn1C)C(CCO)OCCCCn1c(C(=O)O)c(CCCOc3cccc4ccccc34)c3ccc(Cl)c-2c31` (single isomer, unassigned; enantiomer 1) [Example 31, (+)-4-chloro-15-(2-hydroxyethyl)-2,3-dimethyl-7-{3-[(naphthalen-1-yl)oxy]propyl}-2,10,11,12,13,15-hexahydropyrazolo[4′,3′:9,10][1,6]oxazacycloundecino[8,7,6-hi]indole-8-carboxylic Acid (Enantiomer 1)] returned a concentration for half-maximal inhibition (IC50) of 481 nM. Moreover, at MCL-1, the affinity, expressed as Kd, was 1.8 nM; the off-rate (koff) was 0.008 s⁻¹; the on-rate (kon) stood at 4.4e+06 M⁻¹ s⁻¹.

With `CCc1c2c(nn1C)C(CCOC)OCCCCn1c(C(=O)O)c(CCCOc3cccc4cc(F)ccc34)c3ccc(Cl)c-2c31` (single isomer, unassigned; enantiomer 1) [Example 42, (+)-4-chloro-3-ethyl-7-{3-[(6-fluoronaphthalen-1-yl)oxy]propyl}-15-(2-methoxyethyl)-2-methyl-2,10,11,12,13,15-hexahydropyrazolo[4′,3′:9,10][1,6]oxazacycloundecino[8,7,6-hi]indole-8-carboxylic Acid—N-ethylethanamine Salt (Enantiomer 1)], the half-maximal inhibitory concentration (IC50) came out at 45.1 nM in test [1]; 270 nM with SNU-389 cells; 156 nM in the test on DMS-114 cells (DMS-114, 72 h). On MCL-1, the equilibrium dissociation constant (Kd) is 2.8 nM. In addition, the koff at MCL-1 stood at 0.0032 s⁻¹. Besides, the kon on MCL-1 was determined as 1.2e+06 M⁻¹ s⁻¹.

Molecule `CCc1c2c(nn1C)C(CCO)OCCCCn1c(C(=O)O)c(CCCOc3cccc4cc(F)ccc34)c3ccc(Cl)c-2c31` (single isomer, unassigned; enantiomer 1) [Example 45, (+)-4-chloro-3-ethyl-7-{3-[(6-fluoronaphthalen-1-yl)oxy]propyl}-15-(2-hydroxyethyl)-2-methyl-2,10,11,12,13,15-hexahydropyrazolo[4′,3′:9,10][1,6]oxazacycloundecino[8,7,6-hi]indole-8-carboxylic Acid (Enantiomer 1)] returned a half-inhibitory concentration (IC50) in test [1] of 155 nM. Besides, the IC50 in the test on SNU-389 cells (CellTiter-Glo) is 350 nM. Moreover, the IC50 in the test with DMS-114 cells (DMS-114 cells, 72 h, CellTiter-Glo) was 298 nM. In addition, at MCL-1, binding was put at a Kd of 2.3 nM, the koff was 0.0068 s⁻¹ and the association rate constant (kon) was found to be 3e+06 M⁻¹ s⁻¹.

On to `CCc1c2c(nn1C)C(CCN1CCOCC1)OCCCCn1c(C(=O)O)c(CCCOc3cccc4cc(F)ccc34)c3ccc(F)c-2c31` (single isomer, unassigned; enantiomer 2) [Example 51, (−)-3-ethyl-4-fluoro-7-{3-[(6-fluoronaphthalen-1-yl)oxy]propyl}-2-methyl-15-[2-(morpholin-4-yl)ethyl]-2,10,11,12,13,15-hexahydropyrazolo[4′,3′:9,10][1,6]oxazacycloundecino[8,7,6-hi]indole-8-carboxylic Acid (Enantiomer 2)], for which the half-inhibitory concentration (IC50) in test [1] stood at 12000 nM.

As usually defined, the IC50 is the concentration that gives 50% inhibition. A word on the Kd: it is a measure of binding affinity in units of concentration. For orientation: koff means the first-order rate constant of dissociation. The term kon denotes a measure of how fast the partners come together.
